The target in experiment [1] is JH2 domain of human Tyk2 (Homo sapiens (Human), UniProt P29597). Kind of experiment: JH2 Biochemical Assay (TR-FRET probe displacement). Type of experiment: binding. Background: TR-FRET usually uses a lanthanide donor and a delayed reading to cut background.
Experiment [2] has as its target JAK2 (Homo sapiens (Human), UniProt O60674). In words: pSTAT5 Cell Assay (MSD, TF1 cells). Type of experiment: cell-based. The essentials: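 Serum-starved TF1 cells were pretreated with compound for 1 h (10-point four-fold series from 10 μM), then stimulated with 30 ng/mL IL-3 for 15 min. pSTAT5 in lysates was measured by MSD immunoassay. IC50 came from a 4-parameter logistic fit.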

Experiment [3] has as its target JAK1 (Homo sapiens (Human), UniProt P23458). Kind of experiment: pSTAT3 Cell Assay (MSD, TF1 cells). Type of experiment: cell-based. The method in brief:
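Serum-starved TF1 cells with endogenous JAK1/STAT3 were pretreated 1 h with compound in a 10-point four-fold dilution series from 10 μM, then stimulated with 30 ng/mL IL-6 for 15 min. pSTAT3 in lysates was quantified by MSD immunoassay, and IC50 came from 4-parameter logistic fits.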

Experiment [4] addresses Tyk2 (Homo sapiens (Human), UniProt P29597). In words: pSTAT4 Cell Assay (MSD, NK92 cells). Type of experiment: cell-based.
Setting [5] is: TR-FRET probe displacement, JH2 domain of human Tyk2.
Setting [6] is: JH2 domain of human Tyk2, TR-FRET probe displacement.

In US20260028365A1 (BIOGEN MA INC., priority 2022, published 2026) one finds IC50 data, which are given here for 12 compounds.

Read-outs that look alike come from different tables or passages of the source. Where only a bound is given, the exact number is not on record here.

Usually IC50 stands for the concentration that gives 50% inhibition.

Chain of JAK1 (P23458 whole entry): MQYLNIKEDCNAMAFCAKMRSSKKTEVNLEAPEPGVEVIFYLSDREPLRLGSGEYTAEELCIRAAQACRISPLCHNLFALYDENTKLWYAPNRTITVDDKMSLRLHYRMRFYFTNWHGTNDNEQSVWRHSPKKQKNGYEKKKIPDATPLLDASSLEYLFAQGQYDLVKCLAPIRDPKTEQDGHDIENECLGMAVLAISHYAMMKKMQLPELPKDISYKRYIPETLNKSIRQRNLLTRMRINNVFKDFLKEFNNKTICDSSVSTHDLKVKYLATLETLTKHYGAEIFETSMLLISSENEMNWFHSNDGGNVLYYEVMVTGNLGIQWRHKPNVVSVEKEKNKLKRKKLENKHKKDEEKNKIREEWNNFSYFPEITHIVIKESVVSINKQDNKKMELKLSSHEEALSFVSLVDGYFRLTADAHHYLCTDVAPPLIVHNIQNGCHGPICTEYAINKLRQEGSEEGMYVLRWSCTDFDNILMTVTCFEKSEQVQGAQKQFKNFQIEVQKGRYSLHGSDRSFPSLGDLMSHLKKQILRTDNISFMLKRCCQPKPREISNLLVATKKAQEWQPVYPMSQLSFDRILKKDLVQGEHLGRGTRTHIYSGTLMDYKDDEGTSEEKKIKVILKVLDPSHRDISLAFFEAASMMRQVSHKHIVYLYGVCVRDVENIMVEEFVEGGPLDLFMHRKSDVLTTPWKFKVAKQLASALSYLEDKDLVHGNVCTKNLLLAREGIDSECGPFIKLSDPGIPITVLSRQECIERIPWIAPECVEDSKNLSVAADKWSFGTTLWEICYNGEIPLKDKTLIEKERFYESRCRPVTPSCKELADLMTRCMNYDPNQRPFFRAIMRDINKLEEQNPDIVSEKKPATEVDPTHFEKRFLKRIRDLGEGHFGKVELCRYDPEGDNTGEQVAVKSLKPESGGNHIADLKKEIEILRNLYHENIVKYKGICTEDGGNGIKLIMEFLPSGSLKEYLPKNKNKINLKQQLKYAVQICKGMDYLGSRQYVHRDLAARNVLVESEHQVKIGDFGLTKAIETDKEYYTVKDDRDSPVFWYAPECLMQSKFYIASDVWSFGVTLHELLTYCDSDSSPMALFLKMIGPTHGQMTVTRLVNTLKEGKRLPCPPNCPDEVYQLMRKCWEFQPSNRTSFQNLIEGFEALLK
Chain of JAK2 (O60674 whole entry): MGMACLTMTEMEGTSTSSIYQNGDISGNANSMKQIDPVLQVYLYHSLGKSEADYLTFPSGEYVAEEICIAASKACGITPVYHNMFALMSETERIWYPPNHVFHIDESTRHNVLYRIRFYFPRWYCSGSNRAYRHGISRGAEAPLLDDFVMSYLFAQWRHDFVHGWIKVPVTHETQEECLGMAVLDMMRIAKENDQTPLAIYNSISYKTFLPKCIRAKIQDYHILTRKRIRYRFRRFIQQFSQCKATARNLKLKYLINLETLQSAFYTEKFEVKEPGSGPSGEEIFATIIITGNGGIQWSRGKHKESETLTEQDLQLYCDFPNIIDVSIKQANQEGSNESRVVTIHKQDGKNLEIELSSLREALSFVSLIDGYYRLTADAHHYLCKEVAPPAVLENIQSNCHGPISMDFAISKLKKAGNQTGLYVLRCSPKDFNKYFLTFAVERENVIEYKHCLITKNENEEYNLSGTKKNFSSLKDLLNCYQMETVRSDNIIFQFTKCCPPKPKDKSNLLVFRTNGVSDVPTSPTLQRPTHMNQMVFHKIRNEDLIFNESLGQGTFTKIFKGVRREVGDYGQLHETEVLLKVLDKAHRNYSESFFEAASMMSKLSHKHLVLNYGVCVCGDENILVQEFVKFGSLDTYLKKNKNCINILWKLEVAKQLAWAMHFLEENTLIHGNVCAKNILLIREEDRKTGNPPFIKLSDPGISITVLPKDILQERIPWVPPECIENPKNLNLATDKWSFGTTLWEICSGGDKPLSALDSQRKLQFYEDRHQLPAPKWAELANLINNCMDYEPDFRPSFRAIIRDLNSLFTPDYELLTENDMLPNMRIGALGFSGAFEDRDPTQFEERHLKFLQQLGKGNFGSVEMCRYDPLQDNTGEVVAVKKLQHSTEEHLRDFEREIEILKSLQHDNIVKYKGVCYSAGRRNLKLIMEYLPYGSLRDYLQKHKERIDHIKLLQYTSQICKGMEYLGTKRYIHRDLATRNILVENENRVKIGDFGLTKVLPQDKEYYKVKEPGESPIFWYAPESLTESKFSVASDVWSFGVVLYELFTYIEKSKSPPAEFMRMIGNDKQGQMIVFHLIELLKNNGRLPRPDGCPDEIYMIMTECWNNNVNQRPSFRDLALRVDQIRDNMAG
Chain of Tyk2 (P29597 whole entry, the tested form may be a part): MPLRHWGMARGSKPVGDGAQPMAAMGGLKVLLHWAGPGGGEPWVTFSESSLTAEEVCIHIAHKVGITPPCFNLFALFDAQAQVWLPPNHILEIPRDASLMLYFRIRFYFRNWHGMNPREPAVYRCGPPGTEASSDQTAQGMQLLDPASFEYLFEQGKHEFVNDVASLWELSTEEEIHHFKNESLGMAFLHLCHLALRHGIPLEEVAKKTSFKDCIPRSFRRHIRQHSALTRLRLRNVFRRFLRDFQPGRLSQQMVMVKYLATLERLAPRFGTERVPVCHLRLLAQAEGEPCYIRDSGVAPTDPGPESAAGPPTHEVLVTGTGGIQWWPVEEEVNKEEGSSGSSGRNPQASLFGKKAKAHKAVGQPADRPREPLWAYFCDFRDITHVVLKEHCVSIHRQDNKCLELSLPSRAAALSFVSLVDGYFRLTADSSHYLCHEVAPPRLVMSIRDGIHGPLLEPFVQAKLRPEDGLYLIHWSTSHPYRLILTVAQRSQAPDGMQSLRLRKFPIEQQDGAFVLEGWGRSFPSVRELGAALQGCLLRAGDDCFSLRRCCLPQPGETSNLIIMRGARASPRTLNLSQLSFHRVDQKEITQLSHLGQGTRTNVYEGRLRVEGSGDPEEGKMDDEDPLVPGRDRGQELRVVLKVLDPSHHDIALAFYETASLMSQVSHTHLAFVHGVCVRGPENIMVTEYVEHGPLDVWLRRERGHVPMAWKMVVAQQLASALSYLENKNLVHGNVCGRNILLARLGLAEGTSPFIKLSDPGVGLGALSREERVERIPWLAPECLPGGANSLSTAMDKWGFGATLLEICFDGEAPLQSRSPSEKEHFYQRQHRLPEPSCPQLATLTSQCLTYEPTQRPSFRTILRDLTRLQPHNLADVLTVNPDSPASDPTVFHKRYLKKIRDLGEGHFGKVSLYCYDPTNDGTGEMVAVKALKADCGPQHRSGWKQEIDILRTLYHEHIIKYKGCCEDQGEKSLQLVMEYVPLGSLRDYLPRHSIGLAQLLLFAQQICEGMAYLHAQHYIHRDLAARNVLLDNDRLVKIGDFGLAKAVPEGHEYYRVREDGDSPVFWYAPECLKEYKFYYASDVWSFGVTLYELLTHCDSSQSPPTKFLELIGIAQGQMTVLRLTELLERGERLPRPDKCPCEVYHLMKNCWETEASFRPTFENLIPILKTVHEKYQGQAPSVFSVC
Chain of JH2 domain of human Tyk2 (P29597 575-876): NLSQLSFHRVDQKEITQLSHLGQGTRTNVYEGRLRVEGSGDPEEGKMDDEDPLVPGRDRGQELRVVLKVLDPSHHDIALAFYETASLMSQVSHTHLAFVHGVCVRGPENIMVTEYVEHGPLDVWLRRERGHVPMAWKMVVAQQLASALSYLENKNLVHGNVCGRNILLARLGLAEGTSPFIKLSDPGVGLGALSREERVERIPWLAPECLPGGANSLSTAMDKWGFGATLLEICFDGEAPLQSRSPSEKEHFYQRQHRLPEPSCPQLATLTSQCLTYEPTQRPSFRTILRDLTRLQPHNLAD

As for `CC(=O)Nc1cc(Nc2cc(C)nc(C(C)(F)F)n2)c(OC(C)C)cn1` [Example 39, N-(4-((2-(1,1-difluoroethyl)-6-methylpyrimidin-4-yl)amino)-5-isopropoxypyridin-2-yl)acetamide], the IC50 in experiment [1] (setting [5]) was ≤ 10 nM; in experiment [2] (IL-3 stimulation, MSD) it was ≥ 1000 nM; in experiment [3] (IL-6 stimulation, MSD) it was ≥ 1000 nM; in experiment [4] (MSD), 10 to 100 nM.
Consider `CC(=O)Nc1cc(Nc2ccnc(C(C)(F)F)n2)ccn1` [Example 724, N-(4-((2-(1,1-difluoroethyl)pyrimidin-4-yl)amino)pyridin-2-yl)acetamide], for which the IC50 in experiment [1] (setting [6]) is 10 to 100 nM; in experiment [2] (IL-3 stimulated, MSD) it was ≥ 1000 nM; in experiment [3] (IL-6 stimulated, MSD), ≥ 1000 nM; in experiment [4] (MSD) it was ≥ 1000 nM.
`CC(=O)Nc1cc(Nc2cc(C)nc(C(C)(F)F)n2)c(O)cn1` [Example 486, N-(4-((2-(1,1-difluoroethyl)-6-methylpyrimidin-4-yl)amino)-5-hydroxypyridin-2-yl)acetamide]: the half-maximal inhibitory concentration (IC50) in experiment [1] (setting [6]) is 10 to 100 nM; in experiment [2] (IL-3 stimulated, MSD) it was ≥ 1000 nM; in experiment [3] (IL-6 stimulated, MSD) it was ≥ 1000 nM; in experiment [4] (MSD), ≥ 1000 nM.
In the case of `COCc1ccc(-c2cnc(NC(C)=O)cc2Nc2cc(C)nc(C(C)(F)F)n2)nc1` [Example 634, N-(4′-((2-(1,1-difluoroethyl)-6-methylpyrimidin-4-yl)amino)-5-(methoxymethyl)-[2,3′-bipyridin]-6′-yl)acetamide], the IC50 in experiment [1] (setting [6]) was ≤ 10 nM; in experiment [2] (IL-3 stimulated, MSD), ≥ 1000 nM; in experiment [3] (IL-6 stimulated, MSD) it was ≥ 1000 nM; in experiment [4] (MSD), ≤ 10 nM.
Consider `CCOc1cnc(NC(C)=O)cc1Nc1ccnc(C(C)(F)F)n1` [Example 4, N-(4-((2-(1,1-difluoroethyl)pyrimidin-4-yl)amino)-5-ethoxypyridin-2-yl)acetamide], for which the IC50 in experiment [1] (setting [5]) was ≤ 10 nM; in experiment [2] (IL-3 stimulation, MSD), ≥ 1000 nM; in experiment [3] (IL-6 stimulation, MSD) it was ≥ 1000 nM; in experiment [4] (MSD) it was 10 to 100 nM.
With `CCc1cc(Nc2cc(NC(C)=O)ncc2OC)nc(C(C)(F)F)n1` [Example 36, N-(4-((2-(1,1-difluoroethyl)-6-ethylpyrimidin-4-yl)amino)-5-methoxypyridin-2-yl)acetamide], the IC50 in experiment [1] (setting [5]) was ≤ 10 nM; in experiment [2] (IL-3 stimulation, MSD) it was ≥ 1000 nM; in experiment [3] (IL-6 stimulation, MSD) it was ≥ 1000 nM; in experiment [4] (MSD), 10 to 100 nM.
Consider `CC(=O)Nc1cc(Nc2cc(C)nc(C(C)(F)F)n2)c(C2CC2)cn1` [Example 29, N-(5-cyclopropyl-4-((2-(1,1-difluoroethyl)-6-methylpyrimidin-4-yl)amino)pyridin-2-yl)acetamide], for which the IC50 in experiment [1] (setting [5]) is ≤ 10 nM; in experiment [2] (IL-3 stimulation, MSD) it was ≥ 1000 nM; in experiment [3] (IL-6 stimulation, MSD), ≥ 1000 nM; in experiment [4] (MSD), 100 to 1000 nM.
`COCc1cc(-c2cnc(NC(C)=O)cc2Nc2cc(C)nc(C(C)(F)F)n2)nn1C` [Example 757, N-(4-((2-(1,1-difluoroethyl)-6-methylpyrimidin-4-yl)amino)-5-(5-(methoxymethyl)-1-methyl-1H-pyrazol-3-yl)pyridin-2-yl)acetamide]: the IC50 in experiment [1] (TR-FRET probe displacement, JH2 domain) was ≤ 10 nM; in experiment [2] (IL-3 stimulated), ≥ 1000 nM; in experiment [3] (IL-6 stimulated) it was 100 to 1000 nM; in experiment [4] it was ≤ 10 nM.
As to `COc1cc(-c2cnc(NC(C)=O)cc2Nc2ccnc(C(C)(C)F)n2)ncn1` [Example 195, N-(4-((2-(2-fluoropropan-2-yl)pyrimidin-4-yl)amino)-5-(6-methoxypyrimidin-4-yl)pyridin-2-yl)acetamide], the IC50 in experiment [1] (setting [5]) is ≤ 10 nM; in experiment [2] (IL-3 stimulation, MSD), ≥ 1000 nM; in experiment [3] (IL-6 stimulation, MSD), ≥ 1000 nM; in experiment [4] (MSD) it was 10 to 100 nM.
For `CC(=O)Nc1cc(Nc2ccnc(C(C)(F)F)n2)c(-c2ccc(F)cn2)cn1` [Example 580, N-(4′-((2-(1,1-difluoroethyl)pyrimidin-4-yl)amino)-5-fluorO[2,3′-bipyridin]-6′-yl)acetamide], the IC50 is ≤ 10 nM in experiment [1] (setting [6]); ≥ 1000 nM in experiment [2] (IL-3 stimulated, MSD); ≥ 1000 nM in experiment [3] (IL-6 stimulated, MSD); ≤ 10 nM in experiment [4] (MSD).
On to `CC(=O)Nc1cc(Nc2cc(C)nc(C(C)(F)F)n2)c(-c2ncccn2)cn1` [Example 668, N-(4-((2-(1,1-difluoroethyl)-6-methylpyrimidin-4-yl)amino)-5-(pyrimidin-2-yl)pyridin-2-yl)acetamide], for which the IC50 in experiment [1] (setting [6]) is ≤ 10 nM; in experiment [2] (IL-3 stimulated, MSD), ≥ 1000 nM; in experiment [3] (IL-6 stimulated, MSD) it was ≥ 1000 nM; in experiment [4] (MSD), ≤ 10 nM.
Take `CCc1cc(Nc2cc(NC(C)=O)ncc2-c2ncccn2)nc(C(C)(F)F)n1` [Example 719, N-(4-((2-(1,1-difluoroethyl)-6-ethylpyrimidin-4-yl)amino)-5-(pyrimidin-2-yl)pyridin-2-yl)acetamide]: the IC50 in experiment [1] (setting [6]) was ≤ 10 nM; in experiment [2] (IL-3 stimulated, MSD), ≥ 1000 nM; in experiment [3] (IL-6 stimulated, MSD) it was ≥ 1000 nM; in experiment [4] (MSD) it was ≤ 10 nM.
